{
  "source": "patent US20240208950A1",
  "about": "“COMPOSITIONS AND METHODS FOR TREATMENT OF CERVICAL AND OVARIAN CANCER” (SOUTH DAKOTA BOARD OF REGENTS, priority 2021, published 2024)",
  "format_in_all_cases": "cell-based, human",
  "key": {"SiHa cells": {"system": "SiHa cells", "assay": "Cell invasion assay (Boyden chamber and xCELLigence), SiHa", "from_the_text": "(§1) FIGS. 8A and 8B show the effect of ORM-Br on invasion of CaSki (FIG. 8A) and SiHa (FIG. 8B) cell lines in Boyden chamber and xCELLigence assay. The images represent the invaded cells of control and ORM-Br-treated CaSki and SiHa cells as determined by Boyden Chamber kit. The magnification was at 20 for the images of FIGS. 8A and 8B."}, "CaSki cells": {"system": "CaSki cells", "assay": "Cell invasion assay (Matrigel / Boyden chamber), CaSki", "conditions": "24 hours", "method": "as §1\nCell invasion assay was performed using BD Biocoat Matrigel Invasion Chambers (BD Biosciences, San Jose, CA, USA), as has been described in the art. Cells were treated with Br-ORM followed by incubation for 24 hours. Cells were fixed using methanol and were stained with crystal violet. […]\nFIG. 14. […] Effect of Br-ORM on cell migration of cervical cancer cells as determined by agarose bead (FIG. 14A), scratch wound healing (FIG. 14B), and Boyden chamber assay (FIG. 14C). […] Closure of wound was determined and photographed using phase contrast microscopy. […] Bar graph represent the quantification of migrated CaSki cells of control and Br-ORM treated groups (FIG. 14C(ii)). […] Effect of Br-ORM treatment on invasion of CaSki cells as determined by a commercially available kit (BD Biosciences) as described in materials and methods. In brief, 24 hours post-treatment of Br-ORM, invaded cells were fixed, stained and counted. […] Bar graph represent the quantification of invaded CaSki cells of control and Br-ORM treated groups (FIG. 14D(ii)). […]"}, "β-catenin in CaSki cells": {"system": "β-catenin in CaSki cells", "assay": "Western blot of β-catenin in nuclear and cytoplasmic extracts, CaSki", "conditions": "15 μM, 24 hours", "method": "In the Example shown at FIGS. 9A-9E, cells were subjected to treatment with 15 μM concentration of ORM-Br for 24 hours, nuclear extracts were prepared and western blot analysis were used to detect the protein levels of β-catenin. […] Western blots were reprobed with β-actin and Histone H3 antibodies as an internal control.\nThe nuclear and cytoplasmic lysates were prepared using respective buffers. The cell lysates (40 μg) were subjected to SDS-PAGE and blotted on PVDF membrane. The membranes were further blocked in 5% milk diluted in 1×TBST solution for 1 hour and incubated overnight in primary antibodies. The following day, the membranes were washed and incubated with secondary antibodies for 1 hour, washed again and developed on a UVP system using chemi-luminiscent reagents.\nThe EMT process in a cell is driven by growth factors or other signaling proteins such as Wnt/beta-catenin and extracellular matrix component that may stimulate cellular growth and migration. The effect of Br-ORM on β-catenin signaling was examined.\nFIG. 15. Effect OF Br-ORM on β-catenin signaling and molecular docking of Br-ORM with β-catenin. Effect of Br-ORM on β-catenin distribution in cytoplasm and nucleus of CaSki and SiHa cells. […] Effect of Br-ORM on β-catenin localization in CaSki cells as determined by confocal microscopy (FIG. 15B(i)-(ii)). […]"}},
  "data": [
    {"smiles": "COc1ccc2c(c1)OC(C)(C)C(c1ccc(Br)cc1)C2c1ccc(OCCN2CCCC2)cc1", "note": "(centres unmarked) [ORM-Br]", "values": [
      {"measurement": "cell invasion", "setting": "SiHa cells", "value": "inhibits the invasion"},
      {"measurement": "cell invasion", "setting": "CaSki cells", "value": "inhibits the invasion"},
      {"measurement": "cell invasion", "setting": "CaSki cells; listed as Br-ORM", "value": "effectively inhibited invasion"},
      {"measurement": "nuclear β-catenin expression", "setting": "β-catenin in CaSki cells", "value": "decrease in expression of nuclear β-catenin"},
      {"measurement": "nuclear β-catenin expression", "setting": "β-catenin in CaSki cells; listed as Br-ORM", "value": "inhibited nuclear β-catenin"}
    ]}
  ]
}
